# Assay results from US12661373B2, “Electrochemically activated salt solution” (AZAD Pharma AG, priority 2018, dated 2026).
# Assays:
# Assay type in all cases: cell-based
# Conditions in all cases: ACV 100 μmol/l, MOI 0.01, titer 24 hpi
# HSV-1 strain Kupka [1] = experiment: In vitro antiviral activity, treatment of Vero cells, plaque assay
# Experimental: (§1) • A. Vero cells were seeded in 24-well plates and treated with dilutions of the ECAS 2 Dil.1:1 and Dil.1:2, either: • I. 24 hours before the infection; • II. 2 hours before the infection; • III. during the infection; • IV. 2 hours post infection; or • V. 6 hours post infection.
# (§2) The cells were infected with the HSV-1 strains Kupka and ANGpath at a multiplicity of infection (MOI) of 0.01. The cells were collected 24 hours post infection (hpi) and the virus titer was determined by plaque assay. Briefly, the samples were serially diluted and plated onto one-day Vero cell-monolayers in 24- or 6-well tissue plates in duplicates. Afterwards, the cells were overlaid with 1% methylcellulose in normal growth media. 5 days post infection, the cells were fixed and stained with 2% crystal violet in 20% ethanol, and the individual plaques were counted to determine the virus titer in each sample. Samples without treatment (Mock, negative control) and samples treated with ACV (Acyclovir, 100 μmol/l, reference control) were handled in the same manner. The test was performed in two independent experiments, where each of the samples was tested in parallel wells. • B. The HSV-1 strains Kupka and ANGpath, were incubated at a MOI of 0.01 with dilutions of the ECAS 2 either Dil.1:1 or Dil.1:2, in a final volume of 100 μl for either: • I. 12 hours; • II. 8 hours; • III. 6 hours; or • IV. 2 hours.
# HSV-1 strain ANGpath [2] = experiment: as above
# Experimental: as §1, §2
# HSV-1 strain Kupka [3] = experiment: In vitro antiviral activity, pre-incubation of virus before infection of Vero cells, plaque assay
# Experimental: as §2
# (§3) Then cells, which had been seeded in 24-well plates 24 hours before the infection, were infected with the above mentioned pre-incubated viruses. 24 hpi the cells were collected and the virus titer was determined by a plaque assay, as described above. Samples without treatment (Mock, negative control) and samples treated with Acyclovir (100 μmol/l as reference control) were handled in the same manner. The test was performed in two independent experiments, where each of the samples was tested in parallel wells.
# HSV-1 strain ANGpath [4] = experiment: as above
# Experimental: as §2, §3
# [5] = cells treated 2 h before infection
# [6] = cells treated 24 h before infection
# [7] = virus incubated 2 h before infection
# [8] = virus incubated 6 h before infection
# [9] = virus incubated 8 h before infection
# [10] = virus incubated 12 h before infection
structure (smiles),measurement,setting,value
"Nc1nc2c(ncn2COCCO)c(=O)[nH]1 [ACV, Acyclovir]",Reduction in viral titer,HSV-1 strain Kupka [1]; cells treated 2 hpi,4.52 log10
same,Reduction in viral titer,HSV-1 strain Kupka [1]; cells treated 6 hpi,3.43 log10
same,Reduction in viral titer,HSV-1 strain Kupka [1]; [5],1.96 log10
same,Reduction in viral titer,HSV-1 strain Kupka [1]; [6],1.96 log10
same,Reduction in viral titer,HSV-1 strain Kupka [1]; cells treated during infection,3.69 log10
same,Reduction in viral titer,HSV-1 strain ANGpath [2]; cells treated 2 hpi,2.81 log10
same,Reduction in viral titer,HSV-1 strain ANGpath [2]; cells treated 6 hpi,2.38 log10
same,Reduction in viral titer,HSV-1 strain ANGpath [2]; [5],0.61 log10
same,Reduction in viral titer,HSV-1 strain ANGpath [2]; [6],0.54 log10
same,Reduction in viral titer,HSV-1 strain ANGpath [2]; cells treated during infection,2.45 log10
same,Reduction in viral titer,HSV-1 strain Kupka [3]; [7],4.62 log10
same,Reduction in viral titer,HSV-1 strain Kupka [3]; [8],3.55 log10
same,Reduction in viral titer,HSV-1 strain Kupka [3]; [9],5.17 log10
same,Reduction in viral titer,HSV-1 strain Kupka [3]; [10],3.15 log10
same,Reduction in viral titer,HSV-1 strain ANGpath [4]; [7],2.85 log10
same,Reduction in viral titer,HSV-1 strain ANGpath [4]; [8],2.59 log10
same,Reduction in viral titer,HSV-1 strain ANGpath [4]; [9],2.97 log10
same,Reduction in viral titer,HSV-1 strain ANGpath [4]; [10],2.56 log10
